Article PMC5224920, “Assessing the mechanism and therapeutic potential of modulators of the human Mediator complex-associated protein kinases” (eLife, 2016)

Tested on: 12 single or co-culture in vitro tissue models of primary cells
Assay: Culture/co-culture cell model panel, extracellular biomarkers (DiscoveRx); for CCL2/MCP-1: reference of the scale not given here; for CXCL8/IL-8: reference of the scale not given here; for CXCL9/MIG: reference of the scale not given here; for M-CSF: reference of the scale not given here; for PBMC Cytotoxicity: reference of the scale not given here; for SRB: reference of the scale not given here; for sTNF-alpha: reference of the scale not given here
Type: cell-based, human
Conditions: for Secreted IgG / sIL-2 / sIL-6 / sIL-17A / sIL-17F / sTNF-alpha / B cell Proliferation / PBMC Cytotoxicity: BT; for CCL2/MCP-1 / CD54/ICAM-1 / CD106/VCAM-1 / CXCL8/IL-8 / CXCL9/MIG / CXCL10/IP-10 / CXCL11/I-TAC / Collagen I / Collagen III / EGFR / M-CSF / MMP-1 / PAI-I / Proliferation_72hr / SRB / TIMP-1 / TIMP-2: HDF3CGF stimulated fibroblasts

## CN1c2ccc(-c3cncc(Cl)c3N3CCC4(CC3)CNC(=O)O4)cc2CS1(=O)=O [CMPD2]
1.00E0 nM
  Secreted IgG: 0.088
  sIL-2: 0.154
  sIL-6: 0.00536
  sIL-17A: -0.061
  sIL-17F: -0.213
  sTNF-alpha: 0.097
  CCL2/MCP-1: -0.018
  CD54/ICAM-1: 0.007
  CD106/VCAM-1: -0.010
  CXCL8/IL-8: -0.008
  CXCL9/MIG: -0.000757
  CXCL10/IP-10: 0.037
  CXCL11/I-TAC: 0.014
  Collagen I: 0.035
  Collagen III: 0.042
  EGFR: 0.046
  M-CSF: -0.058
  MMP-1: 0.070
  PAI-I: 0.087
  Proliferation_72hr: -0.036
  SRB: 0.000177
  TIMP-1: 0.025
  TIMP-2: 0.118
1.00E1 nM
  B cell Proliferation: -0.033
  PBMC Cytotoxicity: -0.030
  Secreted IgG: -0.163
  sIL-2: 0.264
  sIL-6: 0.057
  sIL-17A: 0.173
  sIL-17F: -0.239
  sTNF-alpha: 0.051
  CCL2/MCP-1: -0.070
  CD54/ICAM-1: -0.021
  CD106/VCAM-1: 0.006
  CXCL8/IL-8: -0.045
  CXCL9/MIG: -0.030
  CXCL10/IP-10: 0.050
  CXCL11/I-TAC: -0.011
  Collagen I: 0.014
  Collagen III: 0.091
  EGFR: -0.013
  M-CSF: -0.075
  MMP-1: 0.050
  PAI-I: 0.006
  Proliferation_72hr: -0.171
  SRB: -0.008
  TIMP-1: -0.010
  TIMP-2: 0.117
1.00E2 nM
  B cell Proliferation: -0.057
  PBMC Cytotoxicity: -0.030
  Secreted IgG: -0.186
  sIL-2: 0.109
  sIL-6: 0.035
  sIL-17A: 0.214
  sIL-17F: -0.485
  sTNF-alpha: 0.059
  CCL2/MCP-1: -0.120
  CD54/ICAM-1: -0.051
  CD106/VCAM-1: 0.051
  CXCL8/IL-8: -0.095
  CXCL9/MIG: -0.077
  CXCL10/IP-10: 0.043
  CXCL11/I-TAC: -0.010
  Collagen I: 0.00565
  Collagen III: 0.086
  EGFR: -0.067
  M-CSF: -0.100
  MMP-1: 0.024
  PAI-I: -0.00168
  Proliferation_72hr: -0.240
  SRB: 0.000238
  TIMP-1: -0.059
  TIMP-2: 0.121
1.00E3 nM
  B cell Proliferation: -0.027
  PBMC Cytotoxicity: -0.033
  Secreted IgG: 0.074
  sIL-2: 0.068
  sIL-6: 0.046
  sIL-17A: 0.216
  sIL-17F: -0.463
  sTNF-alpha: 0.076
  CCL2/MCP-1: -0.156
  CD54/ICAM-1: -0.066
  CD106/VCAM-1: 0.036
  CXCL8/IL-8: -0.119
  CXCL9/MIG: -0.093
  CXCL10/IP-10: 0.039
  CXCL11/I-TAC: -0.012
  Collagen I: 0.040
  Collagen III: 0.054
1.00E4 nM
  B cell Proliferation: -0.077
  PBMC Cytotoxicity: -0.046
  Secreted IgG: -0.114
  sIL-2: -0.00739
  sIL-6: -0.075
  sIL-17A: 0.256
  sIL-17F: -0.594
  sTNF-alpha: 0.009
